From patent EP1131073B1, “USE OF STAUROSPORINE DERIVATIVES FOR TREATING OCULAR NEOVASCULAR DISEASES” (Novartis AG, priority 1998, dated 2000)

Key:
[1] = tested on: retinal vascular development; experiment: Retinal vascular development in neonatal mice, fluorescein-dextran perfused retinal flat mounts; format: in vivo, newborn C57/BL6J mice; conditions: 100 mg/kg daily subcutaneous
Description: Litters of newborn C57/BL6J mice (neonatal mice) are divided into treatment and control groups which received daily subcutaneous injections of 100 mg/kg of the drug or vehicle, respectively. At 7 or 10 days of age, the mice are anesthetized with ether, and perfused with 1 ml of phosphate-buffered saline containing 50 mg/ml of fluorescein-labeled dextran (2x10^6 average mw, Sigma, St. Louis, MO) as described by Tobe et al., Evolution of Neovascularization in Mice with Overexpression of VEGF in Photoreceptors, Invest. Ophthalmol. Vis. Sci. 39, 180-188 (1998). The eyes are removed and fixed for 1 hour in 10% phosphate-buffered formalin. The cornea and lens are removed and the entire retina is carefully dissected from the eyecup. Radially cuts are made from the edge of the retina to the equator in all 4 quadrants, and the retina is flat-mounted in Aquamount with photoreceptors facing upward. The flat mounts are examined by fluorescence microscopy, and the images are digitized using a 3 CCD color video camera and a frame grabber. Image-Pro™ Plus is used to measure the distance from the center of the optic nerve to the leading front of developing retinal vessels in each quadrant and the mean is used as a single experimental value.

[2] = tested on: choroidal neovascularization; experiment: Laser-induced rupture of Bruch's membrane, choroidal neovascularization in mice; format: in vivo, C57BL/6J mice; conditions: 400 mg/kg/day orally by gavage
Description: C57BL/6J mice are treated in accordance with the Association for Research in Vision and Ophthalmology resolution for the treatment of animals. […] J Path, in press. Briefly, 4 to 5 week old male C57BL/6J mice are anesthetized with ketamine hydrochloride (100 mg/kg body weight) and the pupils are dilated with 1% tropicamide. Three bums of krypton laser photocoagulation (100 µm spot size, 0.1 seconds duration, 150 mW) are delivered to each retina using the slit lamp delivery system of a Coherent Model 920 Photocoagulator and a hand held cover slide as a contact lens. Bums are performed in the 9, 12, and 3 o'clock positions of the posterior pole of the retina. Production of a bubble at the time of laser, which indicates rupture of Bruch's membrane, is an important factor in obtaining CNV, so only mice in which a bubble is produced for all three bums are included. […] After 14 days, the mice are killed with an overdose of pentobarbital sodium, and their eyes are rapidly removed and frozen in optimal cutting temperature embedding compound (OCT). Frozen serial sections (10 µm) are cut through the entire extent of each burn and histochemically stained with biotinylated griffonia simplicifolia lectin B4 (Vector Laboratories, Burlingame, CA), which selectively binds to endothelial cells. Slides are incubated in methanol/H2O2 for 30 minutes at 4°C, washed with 0.05 M Tris-buffered saline, pH 7.4 (TBS), and incubated for 30 minutes in 10% normal swine serum. Slides are rinsed with 0.05M TBS and incubated 2 hours at 37°C with biotinylated lectin. After being rinsed with 0.05M TBS, slides are incubated with Streptavidin-phosphatase (Kirkegaard and Perry Laboratories, Cabin John, MD) for 30 minutes at room temperature. […]
To perform quantitative assessments, lectin-stained sections are examined with an Axioskop microscope (Zeiss, Thornwood, NY) and images are digitized using a 3 CCD color video camera (IK-TU40A, Toshiba, Tokyo, Japan) and a frame grabber. […]

[3] = tested on: endothelial cells of mature vessels; experiment: Effect on mature retinal vessels of adult mice, endothelial staining with image analysis; format: in vivo, Adult C57BL6J mice; conditions: 600 mg/kg by gavage once a day for 5 days
Description: (§1) After 5 days of treatment, the mice are sacrificed, eyes are rapidly removed and frozen in optimum cutting temperature embedding compound (OCT; Miles Diagnostics, Elkhart, IN) or fixed in 10% phosphate-buffered formalin and embedded in paraffin. Adult C57BL6J mice are also treated by gavage with the drug or vehicle and after 5 days, they are sacrificed and their eyes are processed for frozen or paraffin sections.

[4] = tested on: retinal neovascularization; experiment: Oxygen-induced ischemic retinopathy in mice, lectin-stained retinal sections with image analysis; format: in vivo, C57/BL6J mice; conditions: for clumps of neovascularization on the surface of the retina: compared to vehicle-treated control mice
Description: Ischemic retinopathy is produced in C57/BL6J mice by a method described by Smith et al., Oxygen-induced Retinopathy in the Mouse, Invest. Ophthalmol. Vis. Sci. 35, 101-111 (1994). Seven-day-old mice and their mothers are placed in an airtight incubator and exposed to an atmosphere of 75 ± 3% oxygen for 5 days. Incubator temperature is maintained at 23 ± 2°C, and oxygen is measured every 8 hours with an oxygen analyzer. After 5 days, the mice are removed from the incubator, placed in room air, and subjected to a drug treatment. […] Vehicle (1% DMSO) or vehicle containing various concentrations of the drug (volume = 10 µl per gram body weight) is placed in the stomach by gavage.
as §1
Slides are incubated in methanol/H2O2 for 10 minutes at 4°C, washed with 0.05 M Tris-buffered saline, pH 7.6 (TBS), and incubated for 30 minutes in 10% normal porcine serum. Slides are incubated 2 hours at room temperature with biotinylated lectin and after rinsing with 0.05M TBS, they are incubated with avidin coupled to peroxidase (Vector Laboratories) for 45 minutes at room temperature. After being washed for 10 minutes with 0.05 M TBS, slides are incubated with diaminobenzidine to give a brown reaction product. Some slides are counterstained with hematoxyln and all were mounted with Cytoseal.
To perform quantitative assessments, 10 µm serial sections are cut through half of each eye and sections roughly 50-60 µm apart are stained with lectin, providing 13 sections per eye for analysis. Lectin-stained sections are examined with an Axioskop microscope (Zeiss, Thornwood, NY) and images are digitized using a 3 CCD color video camera (IK-TU40A, Toshiba, Tokyo, Japan) and a frame grabber. Image-Pro Plus software (Media Cybernetics, Silver Spring, MD) is used to delineate lectin-stained cells on the surface of the retina and their area is measured. The mean of the 13 measurements from each eye is used as a single experimental value.

[5] = 300 mg/kg twice a day by gavage

CO[C@@H]1[C@H](N(C)C(=O)c2ccccc2)C[C@H]2O[C@]1(C)n1c3ccccc3c3c4c(c5c6ccccc6n2c5c31)C(=O)NC4 [NBS, N-benzoyl-staurosporine]
extension of retinal vessels ([1]; at 7 days of age): only extend slightly more than halfway to the periphery
extension of superficial capillary bed ([1]; at 10 days of age): has not yet reached the edge of the retina
integrated area of lectin staining per lesion ([2]; 14 days, vehicle alone 0.0695621 ± 0.0073960 mm^2, p=0.004): 0.009018 ± 0.001754 mm^2
appearance of overlying retinal vessels ([2]; two weeks after laser): appear normal
choroidal neovascularization at the site of each laser-induced rupture of Bruch's membrane ([2]; two weeks after laser): very little if any
toxicity to endothelial cells of mature vessels [3]: not toxic
total area of endothelial staining in the retina or the appearance of retinal vessels ([3]; compared to vehicle-treated mice): no difference
endothelial cell staining on and in the retinas (image analysis) ([4]; 60 mg/kg once a day, compared to vehicle-treated mice): significantly less
endothelial staining within the retina ([4]; 60 mg/kg twice a day by gavage): some decrease
clumps of neovascularization on the surface of the retina ([4]; 60 mg/kg twice a day by gavage): less than clumps in the retina of the vehicle-treated control mice
endothelial staining within the retina [4, 5]: some decrease
clumps of neovascularization on the surface of the retina [4, 5]: less than clumps in the retina of the vehicle-treated control mice
endothelial cell staining in the inner nuclear layer and outer plexiform layer ([4]; 600 mg/kg once a day for 5 days): striking absence
endothelial cell staining on the surface and within the retina ([4]; 600 mg/kg once a day for 5 days by gavage, compared to vehicle-treated mice): dramatic decrease
endothelial cell staining within the retina ([4]; 600 mg/kg once a day for 5 days, compared to nonischemic mice): less than that of the nonischemic mice
endothelial cell staining on and in the retinas (image analysis) ([4]; 600 mg/kg once a day, compared to vehicle-treated mice): significantly less
